Measured values: patent US6214805A, “RNase L activators and antisense oligonucleotides effective to treat RSV infections” (priority 1997, dated 2001)

Assays:
RSV CH18537 (B) = experiment: CPE inhibition assay in HEp-2 cells, RSV strain CH18537; assay type: cell-based, Respiratory syncytial virus; details: Table 12, CPE
Protocol: (§1) The CPE inhibition assay used in this study was performed as described by Sidwell and Huffman (Sidwell et al., 1971, Appl. Microbiol. 22:7979-7801) with slight modifications. Varying concentrations of test compounds were added to each plate containing near confluent cell monolayers (1×10^5 cells/well) followed immediately by the addition of virus at a multiplicity of infection (MOI)=0.01, and then incubated at 37° C. On the following day, the medium from each plate was removed and fresh compound added. The assay was stopped at the end of the sixth day when the virus cytopathic effect in the virus infected, untreated control cells affected all cells. All compounds were assayed for virus inhibition in quadruplicate and for cytotoxicity in duplicate. For each compound, two wells were set aside as uninfected, untreated cell controls per test and four wells per test received virus only and represented controls for virus replication. […] For all CPE-based assays, the 50% effective concentration (EC50) was calculated by regression analysis using the means of the CPE ratings at each concentration of compound.
(§2) In this series, MP351 was added once a day for two days with fresh medium

RSV strain A2 [1] = experiment: Virus yield reduction assay in HEp-2 cells; assay type: cell-based, Respiratory syncytial virus; details: human respiratory syncytial virus, compound added twice daily
Protocol: EC50 & EC90 : concentration required to reduce virus (RSV strain
Both compounds were added to the cells twice daily.

[2] = system: RSV 393 (clinical isolate); experiment: Neutral red uptake assay in HEp-2 cells, RSV 393; assay type: cell-based, Respiratory syncytial virus; details: Table 12, neutral red
Protocol: (§3) This assay was performed by a modified method as described by Cavenaugh et al. (Cavenaugh et al. 1990, Invest. New Drugs 8:347-354). Briefly, medium was removed from each well of a plate scored for CPE from a CPE inhibition assay, 0.2 ml of neutral red (0.034% in PSS) was added to each of the wells of that plate and the plate incubated for 2 hr at 37° C. in the dark. The neutral red solution was removed from the wells and the wells rinsed twice with PBS (pH 7.4). Equal volumes (0.1 ml) of absolute ethanol and Sorenson citrate buffer (0.1 M sodium citrate, 0.1 M HCI, pH 4.2) were mixed together and added to each well. Plates were incubated in the dark for 30 min. at room temperature to solubilize the dye. The plates were then gently mixed on a 96-well plate adapted vortexer for 1 min. Absorbances at 540 nm and 450 nm were read with a microplate reader (Bio-Tek EL 1309; Bio-Tek Instruments, Inc. Winooski, Vt.). Absorbance values were expressed as percents of untreated controls and EC50 and IC50 values were calculated by regression analysis.
as §2

[3] = in vivo; cited from earlier work
Hep-2 Cells = experiment: Neutral red uptake assay of cytotoxicity in HEp-2 cells; assay type: cell-based, human; details: Homo sapiens
Protocol: Embryonic African green monkey kidney cells (MA-104) were obtained from BioWhittaker, Inc. (Walkersville, Md.). HEp-2 cells were propagated from a human epidermoid carcinoma of the larynx (American Type Culture Collection, ATCC; Rockville, Md.). The cells were grown in minimal essential medium. (MEM, Gibco-BRL, Gaitherburg, Md.) supplemented with 0.1% NaHCO3 and 10% fetal bovine serum (FBS, Hyclone Laboratories, Logan Utah.). When performing antiviral assays, serum was reduced to 2% and 50 μg/ml gentamicin (Sigma Chemical Company, St. Louis, Mo.) was added to the medium.
as §3

RSV strain A2 [4] = experiment: Antiviral activity in Hep-2 cells, neutral red (reduction of RSV-induced CPE); assay type: cell-based, Respiratory syncytial virus
Source text: A comparison of the efficacies of spA4 -antiRSV3'3'T/(8281-8299) treatment and conventional ribarvirin treatment can be obtained by determining the RSV-inhibitory concentration and the cytotoxic concentration of each compound. Cultures of the human laryngeal carcinoma cell line HEp-2 and the […] renal cell line MA-104 were established and infected with an MOI=0.005. Cultures were fed twice daily. Treatment with either ribavirin or spA4 -antiRSV3'3'T/(8281-8299) was begun simultaneously with infection and continued for four days. Treatment was then withdrawn and the test read on day 5. The effects of treatment on RSV infection were reported as 1) an EC50, the concentration at which there was a 50% reduction in the observable cytopathic effects of infection and 2) an EC90, the concentration at which there was a 90% reduction in viral production. […] Therapeutic efficacy is estimated by the Selectivity Index, which is the ratio of IC50 /EC50.
determined with RSV strain A2, MOI = 0.005
Fresh medium and oligo or ribavirin added twice daily for 4 d and test read
EC50 effective concentration to reduce RSV-induced CPE by 50%.

[5] = system: RSV 393 (clinical isolate); experiment: CPE inhibition assay in HEp-2 cells, RSV 393; assay type: cell-based, Respiratory syncytial virus; details: Table 12, CPE
Protocol: as §1, §2

RSV Long (A) [6] = experiment: CPE inhibition assay in HEp-2 cells, RSV strain Long; assay type: cell-based, Respiratory syncytial virus; details: Table 12, CPE
Protocol: as §1, §2

RSV Long (A) [7] = experiment: Neutral red uptake assay in HEp-2 cells, RSV strain Long; assay type: cell-based, Respiratory syncytial virus; details: Table 12, neutral red
Protocol: as §3, §2

[8] = human respiratory syncytial virus, 48 h, once a day for two days

## NC(=O)c1ncn([C@@H]2O[C@H](CO)[C@@H](O)[C@H]2O)n1 [Ribavirin]
RSV CH18537 (B)
  SI: 52
RSV CH18537 (B); [8]
  EC50: 4 µM
RSV strain A2 [1]; virus yield reduced by 50%
  EC50: 40 µM
RSV strain A2 [1]; virus yield reduced by 90%
  EC90: 80 µM
[2]
  SI: 24
[2]; [8]
  EC50: 4 µM
[3]
  half-life: 40 days
Hep-2 Cells; HEp-2, 0 h, Table 13, neutral red, q.d., Day 0, HEp-2
  IC50: 328 µM
Hep-2 Cells; HEp-2, 24 h, Table 11, neutral red, q.d. 1 day (added along with virus, never replenished), HEp2
  IC50: 480 µM
Hep-2 Cells; HEp-2, 24 h, Table 13, neutral red, q.d., Day 1, HEp-2
  IC50: 1130 µM
Hep-2 Cells; HEp-2, 48 h, Table 11, neutral red, B.I.D. 2 days, HEp2
  IC50: 1050 µM
Hep-2 Cells; HEp-2, 48 h, Table 13, neutral red, q.d., Day 2, HEp-2
  IC50: 320 µM
Hep-2 Cells; HEp-2, 72 h, Table 11, neutral red, B.I.D. 3 days, HEp2
  IC50: 700 µM
Hep-2 Cells; HEp-2, 72 h, Table 11, neutral red, q.d. 3 days, HEp2
  IC50: 1010 µM
Hep-2 Cells; HEp-2, 96 h, Table 11, neutral red, B.I.D. 4 days, HEp2
  IC50: 600 µM
Hep-2 Cells; HEp-2, 96 h, Table 11, neutral red, q.d. 4 days, HEp2
  IC50: 730 µM
Hep-2 Cells; HEp-2, Table 12, neutral red, test with 393 (clinical isolate), HEp-2
  IC50: 96 µM
Hep-2 Cells; HEp-2, Table 12, neutral red, test with CH18537 (B), HEp-2
  IC50: 233 µM
Hep-2 Cells; HEp-2, Table 12, neutral red, test with Long (A), HEp-2
  IC50: 280 µM
RSV strain A2 [4]
  SI selectivity index = IC50/EC50: 10
RSV strain A2 [4]; human respiratory syncytial virus, 96 h, neutral red, MOI = 0.005, added twice daily for 4 d, read on d 5
  EC50: 4 µM
[5]
  SI: 24
[5]; [8]
  EC50: 4 µM
RSV Long (A) [6]
  SI: 17
RSV Long (A) [6]; [8]
  EC50: 12 µM
RSV Long (A) [7]
  SI: 23
RSV Long (A) [7]; [8]
  EC50: 12 µM
